Test results taken from patent publication US8415469B2, “Compounds and methods for kinase modulation, and indications therefor” (Plexxikon Inc., priority 2005, dated 2013).

Assays:
Type in all cases: biochemical
[1] = biological target: T1, Jnk3 (Homo sapiens, UniProt P53779); assay: AlphaScreen kinase assay, Jnk3; conditions: read-out: IC50, activity toward kinase Jnk3
T1 construct: purchased Upstate Biotechnology

[2] = biological target: T2, Flt1 (Homo sapiens, UniProt P17948); assay: AlphaScreen kinase assay, Flt1; conditions: read-out: IC50, activity toward kinase Flt1
T2 construct: P1826.pETN6 BI-PTP FLT1 M799-D1165-X WT; His6 (N); made in house; host or cells: E. coli (PTP1B co-expressed)
T2 sequence (P17948 with tags, fused parts or gaps): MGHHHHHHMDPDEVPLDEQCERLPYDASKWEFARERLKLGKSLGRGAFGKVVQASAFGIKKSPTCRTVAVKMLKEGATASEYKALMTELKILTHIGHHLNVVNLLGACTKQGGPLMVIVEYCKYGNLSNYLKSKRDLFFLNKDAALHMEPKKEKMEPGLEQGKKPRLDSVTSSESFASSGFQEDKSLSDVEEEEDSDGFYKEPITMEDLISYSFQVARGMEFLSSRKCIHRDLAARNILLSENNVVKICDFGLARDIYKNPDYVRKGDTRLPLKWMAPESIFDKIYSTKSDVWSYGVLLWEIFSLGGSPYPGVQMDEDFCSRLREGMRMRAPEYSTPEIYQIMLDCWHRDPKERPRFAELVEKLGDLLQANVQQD

[3] = biological target: T3, Kit (Homo sapiens, UniProt P10721); assay: AlphaScreen kinase assay, Kit; conditions: read-out: IC50, activity toward kinase Kit
T3 construct: P1332.N6 BI PTP KIT M552-K948-X COD; His6 (N); made in house; host or cells: E. coli (PTP1B co-expressed)
T3 sequence (P10721 with tags, fused parts or gaps): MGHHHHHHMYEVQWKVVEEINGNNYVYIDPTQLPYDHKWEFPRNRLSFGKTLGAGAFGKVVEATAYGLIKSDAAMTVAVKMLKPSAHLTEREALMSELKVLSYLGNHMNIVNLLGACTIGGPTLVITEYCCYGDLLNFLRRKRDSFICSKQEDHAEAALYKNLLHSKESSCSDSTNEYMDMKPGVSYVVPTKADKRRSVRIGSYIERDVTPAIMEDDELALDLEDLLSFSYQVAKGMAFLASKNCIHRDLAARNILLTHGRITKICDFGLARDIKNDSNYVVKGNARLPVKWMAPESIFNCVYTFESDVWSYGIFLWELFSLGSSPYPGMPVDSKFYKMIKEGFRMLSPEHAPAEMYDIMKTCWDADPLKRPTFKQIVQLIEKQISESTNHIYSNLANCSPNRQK

[4] = biological target: T4, B-Raf (Homo sapiens, UniProt P15056); assay: AlphaScreen kinase assay, B-Raf; conditions: read-out: IC50, activity toward kinase B-Raf
T4 construct: purchased Upstate Biotechnology
T4 sequence (P15056 whole entry): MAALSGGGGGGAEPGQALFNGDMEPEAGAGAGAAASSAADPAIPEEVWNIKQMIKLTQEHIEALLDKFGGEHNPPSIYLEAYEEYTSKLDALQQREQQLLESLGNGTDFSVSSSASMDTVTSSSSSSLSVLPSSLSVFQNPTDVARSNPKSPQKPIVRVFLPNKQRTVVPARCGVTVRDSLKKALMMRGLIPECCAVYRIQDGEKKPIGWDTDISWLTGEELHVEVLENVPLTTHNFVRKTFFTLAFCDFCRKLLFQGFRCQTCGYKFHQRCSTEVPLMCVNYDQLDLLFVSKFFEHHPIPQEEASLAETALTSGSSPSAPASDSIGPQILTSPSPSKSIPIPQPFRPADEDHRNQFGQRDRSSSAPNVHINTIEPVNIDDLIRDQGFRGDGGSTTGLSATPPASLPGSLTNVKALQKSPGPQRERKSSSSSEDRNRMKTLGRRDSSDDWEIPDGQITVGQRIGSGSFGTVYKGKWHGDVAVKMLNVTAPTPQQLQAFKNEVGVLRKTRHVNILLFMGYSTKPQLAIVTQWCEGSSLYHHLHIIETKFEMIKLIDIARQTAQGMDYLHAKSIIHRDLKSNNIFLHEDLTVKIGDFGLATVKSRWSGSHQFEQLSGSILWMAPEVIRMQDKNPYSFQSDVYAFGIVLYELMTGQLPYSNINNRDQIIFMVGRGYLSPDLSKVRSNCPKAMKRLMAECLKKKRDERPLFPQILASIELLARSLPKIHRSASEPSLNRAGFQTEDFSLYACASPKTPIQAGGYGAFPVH

[5] = biological target: T5, Jnk1 (Homo sapiens, UniProt P45983); assay: AlphaScreen kinase assay, Jnk1; conditions: read-out: IC50, activity toward kinase Jnk1
T5 construct: purchased Upstate Biotechnology
T5 sequence (P45983 whole entry): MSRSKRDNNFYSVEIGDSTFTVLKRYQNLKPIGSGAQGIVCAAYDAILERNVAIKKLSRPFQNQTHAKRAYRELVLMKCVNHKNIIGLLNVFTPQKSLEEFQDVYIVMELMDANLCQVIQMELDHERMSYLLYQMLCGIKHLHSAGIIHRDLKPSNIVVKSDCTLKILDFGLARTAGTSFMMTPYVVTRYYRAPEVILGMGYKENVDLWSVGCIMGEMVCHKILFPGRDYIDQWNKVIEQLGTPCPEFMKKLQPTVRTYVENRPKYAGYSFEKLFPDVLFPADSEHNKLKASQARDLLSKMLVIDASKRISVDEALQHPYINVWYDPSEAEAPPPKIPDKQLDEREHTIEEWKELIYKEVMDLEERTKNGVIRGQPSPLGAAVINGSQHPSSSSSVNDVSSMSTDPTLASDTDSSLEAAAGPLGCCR

[6] = biological target: T6, B-Raf V600E (Homo sapiens, UniProt P15056, V600E); assay: AlphaScreen kinase assay, B-Raf V600E; conditions: read-out: IC50, activity toward kinase B-Raf V600E
T6 construct: P4254. pFastBacBD-CDC37 BRAF D437-K722-X, V600E; His6 with pFastBac HT leader (TEV site) (N); made in house; host or cells: Sf9 (baculovirus; chaperone CDC37 co-expressed)
T6 sequence (P15056 with tags, fused parts or gaps V600E): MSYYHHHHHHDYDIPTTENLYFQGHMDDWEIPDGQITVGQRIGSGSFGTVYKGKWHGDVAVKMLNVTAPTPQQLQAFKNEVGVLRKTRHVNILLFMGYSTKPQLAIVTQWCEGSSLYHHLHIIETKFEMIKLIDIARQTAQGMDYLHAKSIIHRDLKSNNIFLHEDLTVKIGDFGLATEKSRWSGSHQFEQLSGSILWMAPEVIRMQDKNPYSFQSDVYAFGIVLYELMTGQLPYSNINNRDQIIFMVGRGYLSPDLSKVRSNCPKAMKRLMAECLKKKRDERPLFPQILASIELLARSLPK

[7] = biological target: T7, Jnk2 (Homo sapiens, UniProt P45984); assay: AlphaScreen kinase assay, Jnk2; conditions: read-out: IC50, activity toward kinase Jnk2
T7 construct: purchased Roche Protein Expression Group (Indianapolis, IN)
T7 sequence (P45984 whole entry): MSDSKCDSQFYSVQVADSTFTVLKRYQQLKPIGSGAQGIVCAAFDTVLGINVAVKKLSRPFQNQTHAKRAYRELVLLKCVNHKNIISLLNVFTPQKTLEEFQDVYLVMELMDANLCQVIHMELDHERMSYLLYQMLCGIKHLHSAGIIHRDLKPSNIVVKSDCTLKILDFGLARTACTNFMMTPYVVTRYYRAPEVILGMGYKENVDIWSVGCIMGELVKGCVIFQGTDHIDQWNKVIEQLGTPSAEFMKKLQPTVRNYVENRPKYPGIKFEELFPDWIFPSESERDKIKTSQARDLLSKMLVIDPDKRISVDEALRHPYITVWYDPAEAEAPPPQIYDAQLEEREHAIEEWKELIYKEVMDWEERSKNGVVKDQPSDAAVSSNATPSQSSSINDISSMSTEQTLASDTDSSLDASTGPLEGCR
Outline: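 Stock 20 mM compound in DMSO, diluted 1:3 serially to 8 final concentrations. Kinase phosphorylates biotinylated peptide; donor (streptavidin) and acceptor (anti-phospho antibody) beads then associate. Reduced acceptor emission indicates inhibition.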

[8] = biological target: T8, FGFR1 (Homo sapiens, UniProt P11362, C488A/C584S); assay: AlphaScreen kinase assay, FGFR1; conditions: read-out: IC50, activity toward kinase FGFR
T8 construct: P1351.pET N6 BI-PTP FGFR A458-E765-X C488A, C584S; made in house; host or cells: E. coli (PTP1B co-expressed)
T8 sequence (P11362 458-765 C488A/C584S): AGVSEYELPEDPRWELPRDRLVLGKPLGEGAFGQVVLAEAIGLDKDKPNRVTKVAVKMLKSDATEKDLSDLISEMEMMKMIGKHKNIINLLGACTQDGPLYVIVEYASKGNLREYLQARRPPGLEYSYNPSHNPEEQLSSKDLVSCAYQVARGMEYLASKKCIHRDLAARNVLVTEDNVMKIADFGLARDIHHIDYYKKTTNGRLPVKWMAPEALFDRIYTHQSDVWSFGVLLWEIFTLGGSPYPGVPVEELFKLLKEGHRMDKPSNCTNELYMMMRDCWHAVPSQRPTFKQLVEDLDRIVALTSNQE

[9] = biological target: T9, Fms (Homo sapiens, UniProt P07333); assay: AlphaScreen kinase assay, Fms; conditions: read-out: IC50, activity toward kinase Fms
T9 construct: purchased Upstate Biotechnology
T9 sequence (P07333 20-972): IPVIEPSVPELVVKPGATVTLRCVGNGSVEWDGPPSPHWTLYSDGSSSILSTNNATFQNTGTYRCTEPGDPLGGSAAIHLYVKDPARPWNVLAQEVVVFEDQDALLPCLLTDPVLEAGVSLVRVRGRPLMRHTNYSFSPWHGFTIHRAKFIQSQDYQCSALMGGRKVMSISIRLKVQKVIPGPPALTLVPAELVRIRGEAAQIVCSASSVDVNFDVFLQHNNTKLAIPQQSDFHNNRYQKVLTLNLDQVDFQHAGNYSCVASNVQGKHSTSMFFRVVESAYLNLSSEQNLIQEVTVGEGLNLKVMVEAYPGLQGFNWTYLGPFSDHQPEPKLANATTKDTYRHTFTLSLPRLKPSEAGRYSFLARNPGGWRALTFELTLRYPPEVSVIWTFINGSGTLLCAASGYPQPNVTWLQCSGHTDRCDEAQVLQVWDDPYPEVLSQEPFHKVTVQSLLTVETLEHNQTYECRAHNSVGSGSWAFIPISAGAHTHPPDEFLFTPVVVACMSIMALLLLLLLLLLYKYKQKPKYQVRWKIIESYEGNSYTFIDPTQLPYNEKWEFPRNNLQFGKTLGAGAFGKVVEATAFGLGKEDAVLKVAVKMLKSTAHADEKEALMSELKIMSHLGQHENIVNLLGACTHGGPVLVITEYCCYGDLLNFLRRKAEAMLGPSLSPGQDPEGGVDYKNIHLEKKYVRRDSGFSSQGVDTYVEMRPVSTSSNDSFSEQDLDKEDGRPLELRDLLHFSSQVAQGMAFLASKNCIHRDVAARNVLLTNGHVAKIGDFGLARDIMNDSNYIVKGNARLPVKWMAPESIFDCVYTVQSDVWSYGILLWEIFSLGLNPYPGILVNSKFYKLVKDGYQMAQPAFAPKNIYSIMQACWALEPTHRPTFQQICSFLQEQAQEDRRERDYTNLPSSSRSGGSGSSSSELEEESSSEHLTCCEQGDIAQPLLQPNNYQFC

[10] = biological target: T10, Fak (Homo sapiens, UniProt Q05397); assay: AlphaScreen kinase assay, Fak; conditions: read-out: IC50, activity toward kinase Fak
T10 construct: P1358.pFastBacHtb FAK S411-Q686-X; His6 with pFastBacHTb leader (TEV site) (N); made in house; host or cells: Sf9 (baculovirus)
T10 sequence (Q05397 411-686): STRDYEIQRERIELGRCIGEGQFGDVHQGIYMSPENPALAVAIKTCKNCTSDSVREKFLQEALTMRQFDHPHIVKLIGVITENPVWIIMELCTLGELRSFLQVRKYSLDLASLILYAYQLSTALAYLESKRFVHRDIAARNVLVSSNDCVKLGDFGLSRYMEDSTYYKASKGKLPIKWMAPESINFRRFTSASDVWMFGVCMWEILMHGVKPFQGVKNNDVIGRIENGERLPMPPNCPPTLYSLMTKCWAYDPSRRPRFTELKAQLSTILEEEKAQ

[11] = biological target: T11, Src (Homo sapiens, UniProt P12931); assay: AlphaScreen kinase assay, Src; conditions: read-out: IC50, activity toward kinase Src
T11 construct: P1144. pET-N6 BI-PTP SRC V86-L536-X; made in house

[12] = biological target: T12, Kdr (Homo sapiens, UniProt P35968); assay: Z'-Lyte FRET kinase assay (Invitrogen), Kdr; conditions: read-out: IC50, activity toward kinase Kdr
T12 construct: purchased Invitrogen (assay run by Invitrogen)

[13] = biological target: T13, Ret (Homo sapiens, UniProt P07949); assay: AlphaScreen kinase assay, Ret; conditions: read-out: IC50, activity toward kinase Ret
T13 construct: P1378.pET-SF BI-PTP RET H661-R1012 HIS; made in house
T13 sequence (P07949 with tags, fused parts or gaps): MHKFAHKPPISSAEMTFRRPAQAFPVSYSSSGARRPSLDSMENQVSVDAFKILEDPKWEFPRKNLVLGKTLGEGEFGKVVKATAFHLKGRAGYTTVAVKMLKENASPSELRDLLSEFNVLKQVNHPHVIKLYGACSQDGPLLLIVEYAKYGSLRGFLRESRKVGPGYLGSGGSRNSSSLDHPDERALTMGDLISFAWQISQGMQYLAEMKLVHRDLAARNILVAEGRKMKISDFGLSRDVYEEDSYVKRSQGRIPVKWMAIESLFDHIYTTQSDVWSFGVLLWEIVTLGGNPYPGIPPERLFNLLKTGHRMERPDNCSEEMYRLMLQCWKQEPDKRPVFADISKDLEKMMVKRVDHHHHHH

[14] = biological target: T14, c-Raf-1 (Homo sapiens, UniProt P04049); assay: AlphaScreen kinase assay, c-Raf-1; conditions: read-out: IC50, activity toward kinase c-Raf-1
T14 construct: purchased Upstate Biotechnology
T14 sequence (P04049 whole entry): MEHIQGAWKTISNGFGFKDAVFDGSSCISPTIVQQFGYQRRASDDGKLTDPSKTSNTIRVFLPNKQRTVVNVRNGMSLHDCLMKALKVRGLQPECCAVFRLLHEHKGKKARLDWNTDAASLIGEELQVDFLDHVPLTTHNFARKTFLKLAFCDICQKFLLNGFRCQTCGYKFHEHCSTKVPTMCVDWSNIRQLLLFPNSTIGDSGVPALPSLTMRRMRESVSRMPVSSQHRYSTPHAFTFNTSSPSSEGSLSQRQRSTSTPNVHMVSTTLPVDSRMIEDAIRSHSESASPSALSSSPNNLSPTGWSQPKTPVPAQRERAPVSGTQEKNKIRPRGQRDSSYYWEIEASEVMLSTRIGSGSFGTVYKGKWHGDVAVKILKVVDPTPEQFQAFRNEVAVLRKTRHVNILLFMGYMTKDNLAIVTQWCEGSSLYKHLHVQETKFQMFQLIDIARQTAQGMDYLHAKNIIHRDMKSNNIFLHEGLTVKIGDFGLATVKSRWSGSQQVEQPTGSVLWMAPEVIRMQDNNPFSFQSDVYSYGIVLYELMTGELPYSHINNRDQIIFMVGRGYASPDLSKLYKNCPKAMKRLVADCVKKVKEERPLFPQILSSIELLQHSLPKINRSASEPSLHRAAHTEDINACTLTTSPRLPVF

Measured: IC50

T1 sequence (P53779 whole entry): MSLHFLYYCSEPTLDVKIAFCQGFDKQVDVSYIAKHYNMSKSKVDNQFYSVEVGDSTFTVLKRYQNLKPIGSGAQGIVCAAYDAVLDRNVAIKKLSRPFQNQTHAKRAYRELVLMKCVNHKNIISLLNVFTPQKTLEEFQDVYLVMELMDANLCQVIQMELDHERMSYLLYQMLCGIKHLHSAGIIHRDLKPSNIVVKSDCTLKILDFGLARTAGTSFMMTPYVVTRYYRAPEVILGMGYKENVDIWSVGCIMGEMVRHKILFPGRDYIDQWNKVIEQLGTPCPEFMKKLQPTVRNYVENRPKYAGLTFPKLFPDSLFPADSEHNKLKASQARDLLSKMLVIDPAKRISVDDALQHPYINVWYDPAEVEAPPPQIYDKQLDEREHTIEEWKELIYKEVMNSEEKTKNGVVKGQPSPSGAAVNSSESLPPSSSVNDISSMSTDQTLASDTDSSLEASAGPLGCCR

O=C(NCc1ccccc1)Nc1cccc(C(=O)c2c[nH]c3ncc(-c4cccnc4)cc23)c1 [Compound P-1554, 1-Benzyl-3-[3-(5-pyridin-3-yl-1H-pyrrolo[2,3-b]pyridine-3-carbonyl)-phenyl]-urea]
not listed: [10] | [11] | [12] | [13] | [14]
≤ 10 µM: all other assays above

CCCCNC(=O)Nc1ccc(F)c(C(=O)c2c[nH]c3ncc(-c4cccc(C(N)=O)c4)cc23)c1 [Compound P-1621, 3-{3-[5-(3-Butyl-ureido)-2-fluoro-benzoyl]-1H-pyrrolo[2,3-b]pyridin-5-yl}-benzamide]
≤ 10 µM: [1] | [2] | [4] | [5] | [6] | [7] | [8] | [9]

CCCS(=O)(=O)Nc1ccc(F)c(C(=O)c2c[nH]c3ncc(-c4ccc(C(=O)N5CCOCC5)cc4)cc23)c1F [Compound P-1548, Propane-1-sulfonic acid (2,4-difluoro-3-{5-[4-(morpholine-4-carbonyl)-phenyl]-1H-pyrrolo[2,3]-pyridine-3-carbonyl}-phenyl)-amide]
not listed: [10] | [11] | [12] | [13] | [14]
≤ 10 µM: all other assays above

CCCCNC(=O)Nc1cccc(C(=O)c2c[nH]c3ncc(-c4cccnc4)cc23)c1 [Compound P-1445, 1-Butyl-3-[3-(5-pyridin-3-yl-1H-pyrrolo[2,3-b]pyridine-3-carbonyl)-phenyl]-urea]
not listed: [12] | [13] | [14]
≤ 10 µM: all other assays above

CCCCNC(=O)Nc1ccc(F)c(C(=O)c2c[nH]c3ncc(OC)cc23)c1F [Compound P-1567, 1-Butyl-3-[2,4-difluoro-3-(5-methoxy-1H-pyrrolo[2,3-b]pyridine-3-carbonyl)-phenyl]-urea]
≤ 10 µM: [1] | [2] | [3] | [4] | [5] | [6] | [7] | [9]

COCCNC(=O)Nc1cccc(C(=O)c2c[nH]c3ncc(-c4cccnc4)cc23)c1 [Compound P-1566, 1-(2-Methoxy-ethyl)-3-[3-(5-pyridin-3-yl-1H-pyrrolo[2,3-b]pyridine-3-carbonyl)-phenyl]-urea]
≤ 10 µM: [1] | [2] | [3] | [4] | [5] | [6] | [7] | [9]

CS(=O)(=O)Nc1ccc(F)c(C(=O)c2c[nH]c3ncc(-c4ccccc4)cc23)c1 [Compound P-0308, N-[4-Fluoro-3-(5-phenyl-1H-pyrrolo[2,3-b]pyridine-3-carbonyl)-phenyl]-methanesulfonamide]
≤ 10 µM: [1] | [12] | [5] | [6] | [13] | [7] | [8]

CCCS(=O)(=O)Nc1ccc(F)c(C(=O)c2c[nH]c3ncc(-c4cnn(C)c4)cc23)c1F [Compound P-1864, Propane-1-sulfonic acid {2,4-difluoro-3-[5-(1-methyl-1H-pyrazol-4-yl)-1H-pyrrolo[2,3-b]pyridine-3-carbonyl]-phenyl}-amide]
≤ 10 µM: [14] | [1] | [3] | [4] | [5] | [6] | [7] | [9]

CCCS(=O)(=O)Nc1ccc(F)c(C(=O)c2c[nH]c3ncc(-c4ccc(C(=O)N(C)C)cc4)cc23)c1F [Compound P-1547, 4-{3-[2,6-Difluoro-3-(propane-1-sulfonylamino)-benzoyl]-1H-pyrrolo[2,3-b]pyridin-5-yl}-N,N-dimethyl-benzamide]
not listed: [10] | [11] | [12] | [13]
≤ 10 µM: all other assays above

CCCCNC(=O)Nc1cccc(Cc2c[nH]c3ncc(-c4cccnc4)cc23)c1 [Compound P-1447, 1-butyl-3-[3-(5-pyridin-3-yl-1H-pyrrolo[2,3-b]pyridin-3-ylmethyl)-phenyl]-urea]
not listed: [12] | [13] | [14]
≤ 10 µM: all other assays above

NC(=O)Nc1ccc(F)c(C(=O)c2c[nH]c3ncc(-c4ccccc4)cc23)c1 [Compound P-1589, [4-Fluoro-3-(5-phenyl-1H-pyrrolo[2,3-b]pyridine-3-carbonyl)-phenyl]-urea]
≤ 10 µM: [1] | [2] | [4] | [5] | [6] | [7] | [8] | [9]

CCCCNC(=O)n1ccc2c(C(=O)c3c[nH]c4ncc(-c5ccccc5)cc34)cccc21 [Compound P-1576, 4-(5-Phenyl-1H-pyrrolo[2,3-b]pyridine-3-carbonyl)-indole-1-carboxylic acid butylamide]
≤ 10 µM: [1] | [2] | [3] | [4] | [5] | [6] | [7] | [9]

O=C(Nc1ccccc1)Nc1cccc(C(=O)c2c[nH]c3ncc(-c4cccnc4)cc23)c1 [Compound P-1591, 1-Phenyl-3-[3-(5-pyridin-3-yl-1H-pyrrolo[2,3-b]pyridine-3-carbonyl)-phenyl]-urea]
not listed: [10] | [11] | [12] | [13] | [14]
≤ 10 µM: all other assays above
